The results in this text go back to ChEMBL document CHEMBL1143273, “Structure-based hybridization of the bioactive natural products rhizonin A and ternatin leading to a selective fat-accumulation inhibitor against 3T3-L1 adipocytes” (Bioorg Med Chem Lett, 2009).

The subject of data set [1] is 3T3-L1. As to the kind of experiment: Inhibition of fat-accumulation in mouse 3T3L1 cells. Format: functional, cell-based.
The subject of data set [2] is 3T3-L1. As to the kind of experiment: Cytotoxicity against mouse 3T3L1 cells. The format is cell-based.
Data set [3] concerns 3T3-L1. As to the kind of experiment: Selectivity index, ratio of IC50 for mouse 3T3L1 cells to IC50 for fat-accumulation in mouse 3T3L1 cells. Format: functional.
Data set [4] has as its system 3T3-L1. As to the kind of experiment: Cytotoxicity against mouse 3T3L1 cells at 62 uM. Format: cell-based. To be noted: 3t3-l1, 62 µM.

Non-standard residues stand in square brackets, D forms with d. Residues, ends and D or L forms follow the SMILES beside them. d(aIle) = CC[C@H](C)[C@@H](N)C(=O)O; NMeF = CN[C@@H](Cc1ccccc1)C(=O)O; dNMeF = CN[C@H](Cc1ccccc1)C(=O)O; NMeA = CN[C@@H](C)C(=O)O Some results are limits rather than exact numbers.

What is called IC50 is the concentration that gives 50% inhibition. Read a low IC50 as inhibition by little substance.

As for `CC[C@H](C)[C@H]1NC(=O)[C@@H](Cc2ccccc2)N(C)C(=O)[C@H](C)N(C)C(=O)[C@H](CC(C)C)NC(=O)[C@H](Cc2ccccc2)N(C)C(=O)[C@H](C(C)C)NC(=O)[C@@H](C(C)C)NC1=O` (cyclo(L[NMeA][dNMeF][d(aIle)][dV]V[NMeF])), the IC50 in data set [1] was 42 µM; in data set [2], more than 240 µM. Further, in data set [3], the “Ratio IC50” value was more than 12.3.

Regarding `CC[C@H](C)[C@H]1NC(=O)[C@@H](Cc2ccoc2)N(C)C(=O)[C@H](C)N(C)C(=O)[C@H](CC(C)C)NC(=O)[C@H](Cc2ccoc2)N(C)C(=O)[C@H](C(C)C)NC(=O)[C@@H](C(C)C)NC1=O` [RHIZONIN A], the IC50 in data set [1] was 55 µM; in data set [2], 62 µM. Also, the Activity in data set [4] stood at 70%. For the same compound, the “Ratio IC50” value in data set [3] was 1.
